Data as given in the supplement of paper PMC10307832.

Columns and labels:
Assay in all cases: relative viability (nuclei count vs DMSO), 5 days (fraction); higher = more cells survive
[1] = system: SW 900
How it was run: (§1)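 Relative viability was taken as the ratio of nuclei in treated wells to nuclei in vehicle wells. Lung cancer cell lines in 1536-well plates received compounds by pin tool one day after seeding, either one drug alone or a fixed anchor-drug dose plus five library-drug doses (not always all listed) in √10 steps. Nuclei were counted on 4× images after 5 days of treatment, and values are medians of duplicate plates.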

[2] = system: RERF-LC-KJ
How it was run: as §1

[3] = system: LCLC-103H
How it was run: as §1

[4] = system: NCI-H520
How it was run: as §1

[5] = system: NCI-H2347
How it was run: as §1

[6] = system: NCI-H2170
How it was run: as §1

[7] = system: NCI-H661
How it was run: as §1

[8] = system: LXF-289
How it was run: as §1

[9] = system: NCI-H1355
How it was run: as §1

[10] = system: NCI-H1651
How it was run: as §1

[11] = system: NCI-H1915
How it was run: as §1

[12] = system: NCI-H3122
How it was run: as §1

[13] = system: SK-MES-1
How it was run: as §1

[14] = system: NCI-H460
How it was run: as §1

[15] = system: NCI-H441
How it was run: as §1

[16] = system: NCI-H650
How it was run: as §1

[17] = system: NCI-H1755
How it was run: as §1

[18] = system: PC-14
How it was run: as §1

[19] = system: NCI-H596
How it was run: as §1

[20] = system: NCI-H322M
How it was run: as §1

[21] = system: NCI-H727
How it was run: as §1

Oc1nc(-c2ccc(C(F)(F)F)cc2)nc2c1CSCC2 [XAV939] + Cc1cc(Nc2cc(N3CCN(C)CC3)nc(Sc3ccc(NC(=O)C4CC4)cc3)n2)n[nH]1 [Tozasertib] (partner 0.1 µM) showed a relative viability ([1]; first compound 0.08 µM) of 0.663, a relative viability ([1]; first compound 0.253 µM) of 0.549 and a relative viability ([1]; first compound 0.8 µM) of 0.535. The relative viability ([1]; first compound 2.53 µM) was 0.323, the relative viability ([2]; first compound 0.08 µM) was 0.546 and the relative viability ([2]; first compound 0.253 µM) was 0.465. For the same molecule, the relative viability ([2]; first compound 0.8 µM) was 0.462, the relative viability ([2]; first compound 2.53 µM) was 0.409 and the relative viability ([3]; first compound 0.08 µM) was 0.576. The relative viability ([3]; first compound 0.253 µM) was 0.402, the relative viability ([3]; first compound 0.8 µM) was 0.444 and the relative viability ([3]; first compound 2.53 µM) was 0.504. It also gave a relative viability ([4]; first compound 0.08 µM) of 0.42, a relative viability ([4]; first compound 0.253 µM) of 0.439 and a relative viability ([4]; first compound 0.8 µM) of 0.461. For the same molecule, the relative viability ([4]; first compound 2.53 µM) was 0.427, the relative viability ([5]; first compound 0.08 µM) was 0.613 and the relative viability ([5]; first compound 2.53 µM) was 0.388. For the same molecule, the relative viability ([6]; first compound 0.08 µM) was 0.763, the relative viability ([6]; first compound 0.253 µM) was 0.606 and the relative viability ([6]; first compound 0.8 µM) was 0.66. For the same molecule, the relative viability ([6]; first compound 2.53 µM) was 0.463, the relative viability ([7]; first compound 0.08 µM) was 0.364 and the relative viability ([7]; first compound 0.253 µM) was 0.346. The relative viability ([7]; first compound 0.8 µM) was 0.365, the relative viability ([7]; first compound 2.53 µM) was 0.339 and the relative viability ([8]; first compound 0.08 µM) was 0.215. It also gave a relative viability ([8]; first compound 0.253 µM) of 0.187, a relative viability ([8]; first compound 0.8 µM) of 0.161 and a relative viability ([8]; first compound 2.53 µM) of 0.111. The relative viability ([9]; first compound 0.08 µM) was 0.715, the relative viability ([9]; first compound 0.253 µM) was 0.473 and the relative viability ([9]; first compound 0.8 µM) was 0.548. The relative viability ([9]; first compound 2.53 µM) was 0.411, the relative viability ([10]; first compound 0.08 µM) was 0.726 and the relative viability ([10]; first compound 0.253 µM) was 0.58. The relative viability ([10]; first compound 0.8 µM) was 0.763, the relative viability ([10]; first compound 2.53 µM) was 0.639 and the relative viability ([11]; first compound 0.08 µM) was 0.5. The relative viability ([11]; first compound 0.253 µM) was 0.444, the relative viability ([11]; first compound 0.8 µM) was 0.416 and the relative viability ([11]; first compound 2.53 µM) was 0.43. For the same molecule, the relative viability ([12]; first compound 0.08 µM) was 0.569, the relative viability ([12]; first compound 0.253 µM) was 0.407 and the relative viability ([12]; first compound 0.8 µM) was 0.389. It also gave a relative viability ([12]; first compound 2.53 µM) of 0.337, a relative viability ([13]; first compound 0.08 µM) of 0.956 and a relative viability ([13]; first compound 0.253 µM) of 0.816. The relative viability ([13]; first compound 0.8 µM) was 0.807, the relative viability ([13]; first compound 2.53 µM) was 0.768 and the relative viability ([14]; first compound 0.08 µM) was 0.587. For the same molecule, the relative viability ([14]; first compound 0.253 µM) was 0.392, the relative viability ([14]; first compound 0.8 µM) was 0.45 and the relative viability ([14]; first compound 2.53 µM) was 0.289. The relative viability ([15]; first compound 0.08 µM) was 0.818, the relative viability ([15]; first compound 0.253 µM) was 0.573 and the relative viability ([15]; first compound 0.8 µM) was 0.71. The relative viability ([15]; first compound 2.53 µM) was 0.601, the relative viability ([16]; first compound 0.08 µM) was 0.883 and the relative viability ([16]; first compound 0.253 µM) was 0.691. It also gave a relative viability ([16]; first compound 0.8 µM) of 0.646, a relative viability ([16]; first compound 2.53 µM) of 0.611 and a relative viability ([17]; first compound 0.08 µM) of 0.575. The relative viability ([17]; first compound 0.253 µM) was 0.518, the relative viability ([17]; first compound 0.8 µM) was 0.587 and the relative viability ([17]; first compound 2.53 µM) was 0.481. It also gave a relative viability ([18]; first compound 0.08 µM) of 0.673, a relative viability ([18]; first compound 0.253 µM) of 0.551 and a relative viability ([18]; first compound 0.8 µM) of 0.685. For the same molecule, the relative viability ([18]; first compound 2.53 µM) was 0.544, the relative viability ([19]; first compound 0.08 µM) was 0.915 and the relative viability ([19]; first compound 0.253 µM) was 0.798. It also gave a relative viability ([19]; first compound 0.8 µM) of 1.07, a relative viability ([19]; first compound 2.53 µM) of 0.939 and a relative viability ([20]; first compound 0.08 µM) of 0.553. The relative viability ([20]; first compound 0.253 µM) was 0.432, the relative viability ([20]; first compound 0.8 µM) was 0.431 and the relative viability ([20]; first compound 2.53 µM) was 0.4. For the same molecule, the relative viability ([21]; first compound 0.08 µM) was 0.69, the relative viability ([21]; first compound 0.253 µM) was 0.543 and the relative viability ([21]; first compound 0.8 µM) was 0.769. The relative viability ([21]; first compound 2.53 µM) was 0.62.
